According to US20160312179A1 (GLAXOSMITHKLINE INTELLECHTUAL PROPERTY (NO.2) LIMITED, priority 2013, published 2016):
“Also recorded” adds a separate entry of the source.

Legend:
Type in all cases: cell-based, Chinese hamster
DG44 CHO [1] = experiment: Dose response study of TCA intermediates in fed-batch shake flasks: viable cell concentration / viability; settings: for effect on cell growth / viable cell concentration after addition: dose response, all concentrations tested, compared to control culture
Excerpt: (§1) Several TCA cycle intermediates were selected for a dose response experiment based on commercial availability, either the acid or its sodium salt were purchased from Sigma Aldrich to prepare stock solution feeds to be used in the study.
(§2) FIG. 1 summarizes the TCA cycle components tested and their location in the pathway. Table 1 summarizes the operation condition of shake flasks in the study as well as feed schedules for the dose response study.
(§3) Control shake flasks were set up every time an arm of the study started. Those control shake flasks were fed-batch cultures without addition of any TCA intermediate. All conditions tested were executed in duplicate shake flasks.
(§4) Shake flask cultures were sampled every other day to determine Total Cell Concentration (TCC), Viable Cell Concentration (VCC), cell viability, metabolite (glucose, lactate, glutamine, glutamate, and ammonia) concentration, and osmolality. The master sample was divided into cell-based assays (TCC, viability assays) and cell-free assays (metabolite concentration, osmolality). Back-up samples (cell-free supernatants) for future reference were produced by centrifuging a portion of the master sample and aliquoting 1.8 mL in Nunc cryovials which were subsequently stored at −70° C. Titer was determined on samples filtered through a 0.22 μm-filter.
(§5) TCC, VCC and viability were determined using an automated cell counter based on the trypan blue exclusion method (ViCell XR, Beckman Coulter). Samples were pre-treated with protease prior to cell counting (TripLE, Life Technologies, USA) using equal volumes of protease stock solution and culture. Incubation to allow dissociation was carried out for 20-25 minutes at 37° C. under gentle shaking Metabolites were measured using Nova Bioprofile (Nova Bioprofile 400); which operates on enzyme-based electrochemical reactions. Osmolality measurement was based on the freezing-point depression method (Advanced Instruments, Model N/A). Filtered cell-free samples were sent to the Bioanalytical Development group for antibody accumulation and binding activity determination (Biacore).

DG44 CHO [2] = experiment: Dose response study in shake flasks: ammonia (NH4+) accumulation and production; settings: for effect on ammonia (NH4+) accumulation: dose response, intermediate used alone, compared to control culture
Protocol: as §1, with “study. Selected compounds were pyruvic acid, citric acid, α-ketoglutaric acid, fumaric acid, malic acid (or sodium salts), and oxaloacetic acid (no sodium salt available).” for “study.”
as §2, with “Oxaloacetic acid and malic acid were added to the culture to a final concentration of 5 mM, 10 mM and 15 mM. […] FIG.” for “FIG.”
as §3, §4, §5

DG44 CHO [3] = experiment: DOE interaction study in shake flasks: ammonia (NH4+) accumulation and production; settings: for effect on ammonia (NH4+) generation / accumulation: single intermediate at selected concentration
Protocol: The experiment to test interactions of all the selected components was carried out in two blocks. Each one of the blocks was designed to contain center points and control shake flasks (batch cultures, no addition of any component). […] All conditions were run in duplicates. Shake flask cultures were sampled every other day to determine Total Cell Concentration (TCC), Viable Cell Concentration (VCC), cell viability, metabolite (glucose, lactate, glutamine, glutamate, and ammonia) concentration, and osmolality. The master sample was divided into cell-based assays (TCC, viability assays) and cell-free assays (metabolite concentration, osmolality). Back-up samples (cell-free supernatants) for future reference were produced by centrifuging a portion of the master sample and aliquoting 1.8 mL in Nunc cryovials which were subsequently stored at −70° C. Titer was determined on samples filtered through a 0.22 μm-filter. TCC, VCC and viability were determined using an automated cell counter based on the trypan blue exclusion method (ViCell XR, Beckman Coulter). Samples were pre-treated with protease prior to cell counting (TripLE, Life Technologies, USA) using equal volumes of protease stock solution and culture. Incubation to allow dissociation was carried out for 20-25 minutes at 37° C. under gentle shaking Metabolites were measured using Nova Bioprofile (Nova Bioprofile 400); which operates on enzyme-based electrochemical reactions. Osmolality measurement was based on the freezing-point depression method (Advanced Instruments, Model N/A). Filtered cell-free samples were sent to the Bioanalytical Development group for antibody accumulation and binding activity determination (Biacore).

DG44 CHO [4] = experiment: Dose response study in shake flasks: cell-specific productivity
Protocol: as §1, with “study. Selected compounds were pyruvic acid, citric acid, α-ketoglutaric acid, fumaric acid, malic acid (or sodium salts), and oxaloacetic acid (no sodium salt available).” for “study.”
as §2, with “Oxaloacetic acid and malic acid were added to the culture to a final concentration of 5 mM, 10 mM and 15 mM. […] FIG.” for “FIG.”
as §3
as §4, with “Back-up samples (cell-free supernatants) for future reference were produced by centrifuging a portion of the master sample and aliquoting 1.8 mL in Nunc cryovials which were subsequently stored at −70° C.” left out
(§6) TCC, VCC and viability were determined using an automated cell counter based on the trypan blue exclusion method (ViCell XR, Beckman Coulter). […] Incubation to allow dissociation was carried out for 20-25 minutes at 37° C. under gentle shaking Metabolites were measured using Nova Bioprofile (Nova Bioprofile 400); which operates on enzyme-based electrochemical reactions. […]
Integral of Viable Cells was calculated using VCC data and applying the trapezoid rule following the formula,
Specific Productivity was calculated using the last titer data point divided by last calculated IVC value.

DG44 CHO [5] = experiment: Dose response study in shake flasks: lactate accumulation; settings: 45 mM added to the culture
Protocol: as §1, with “study. Selected compounds were pyruvic acid, citric acid, α-ketoglutaric acid, fumaric acid, malic acid (or sodium salts), and oxaloacetic acid (no sodium salt available).” for “study.”
as §2, with “Oxaloacetic acid and malic acid were added to the culture to a final concentration of 5 mM, 10 mM and 15 mM. […] FIG.” for “FIG.”, “study. […]” for “study.”
Shake flask cultures were sampled every other day to determine Total Cell Concentration (TCC), Viable Cell Concentration (VCC), cell viability, metabolite (glucose, lactate, glutamine, glutamate, and ammonia) concentration, and osmolality. […] Titer was determined on samples filtered through a 0.22 μm-filter.
as §6

DG44 CHO [6] = experiment: DOE interaction study in shake flasks: cell-specific productivity; settings: 20 mM, alone
Protocol: The experiment to test interactions of all the selected components was carried out in two blocks. Each one of the blocks was designed to contain center points and control shake flasks (batch cultures, no addition of any component). […] All conditions were run in duplicates. Shake flask cultures were sampled every other day to determine Total Cell Concentration (TCC), Viable Cell Concentration (VCC), cell viability, metabolite (glucose, lactate, glutamine, glutamate, and ammonia) concentration, and osmolality. The master sample was divided into cell-based assays (TCC, viability assays) and cell-free assays (metabolite concentration, osmolality). […] Titer was determined on samples filtered through a 0.22 μm-filter. TCC, VCC and viability were determined using an automated cell counter based on the trypan blue exclusion method (ViCell XR, Beckman Coulter). […] Incubation to allow dissociation was carried out for 20-25 minutes at 37° C. under gentle shaking Metabolites were measured using Nova Bioprofile (Nova Bioprofile 400); which operates on enzyme-based electrochemical reactions. […] Integral of Viable Cells was calculated using VCC data and applying the trapezoid rule following the formula, Specific Productivity was calculated using the last titer data point divided by last calculated IVC value.

Compound: O=C(O)CC(O)(CC(=O)O)C(=O)O [citric acid]
- effect on cell growth / viable cell concentration after addition (DG44 CHO [1]): deleterious effects on culture

Compound: O=C(O)/C=C/C(=O)O [fumaric acid]
- effect on cell growth / viable cell concentration after addition (DG44 CHO [1]): reduced cell growth
- doses needed to stabilize ammonia production (and accumulation) (DG44 CHO [2]; after Day 10 of culture): 30 mM and 45 mM
- effect on ammonia (NH4+) accumulation (DG44 CHO [2]): only partial effect
- effect on ammonia (NH4+) generation / accumulation (DG44 CHO [3]): slows down

Compound: O=C(O)CC(O)C(=O)O (stereo not shown) [malic acid]
- decline in viability compared to control shake flasks (DG44 CHO [1]; 5 mM): no decline in viability
- decline in viability (DG44 CHO [1]; 30 mM): fastest decline in viability
- concentrations toxic to cells (DG44 CHO [1]; dose response experiment): higher than 5 mM
- cell viability of the culture (DG44 CHO [1]; high concentration (15 mM and 30 mM)): induced loss of cell viability
- effect on NH4+ accumulation or production (DG44 CHO [2]; 5 mM): not a clear effect
- effect on ammonia (NH4+) generation / accumulation (DG44 CHO [3]): suppress ammonia generation for a few days
- effect on ammonia (NH4+) generation / accumulation (DG44 CHO [3]; listed as malate): partially reduced

Compound: O=C(O)CC(=O)C(=O)O [oxaloacetic acid]
- effect on cell growth / viable cell concentration after addition (DG44 CHO [1]): did not have any deleterious effect on cell growth
- cell-specific production rate and NH4+ accumulation (DG44 CHO [2]; 10 mM and 15 mM): reduce
- concentrations in the culture that control ammonia and maintain cell-specific productivity (DG44 CHO [2]; dose response conclusion): 5 to 15 mM
- effect on ammonia (NH4+) accumulation (DG44 CHO [2]): reduction in the ammonia accumulation levels
- effect on final cell-specific productivity (DG44 CHO [4]; dose response, compared to control): sustained cell-specific productivity values
- effect on ammonia (NH4+) generation / accumulation (DG44 CHO [3]): partially reduced

Compound: CC(=O)C(=O)O [pyruvic acid]
- lactate accumulation (DG44 CHO [5]): around 3 g/L
- ammonia accumulated, compared to control shake flasks (DG44 CHO [2]; 15 mM): slightly higher level than that found in control shake flasks
- effect on the reduction of ammonia (DG44 CHO [2]; 15 mM): minor effect on the reduction of ammonia
- ammonia accumulated to (DG44 CHO [2]; 30 mM): 8 mM
- ammonia consumption effect lasted to culture day (DG44 CHO [2]; 30 mM): 8 days
- ammonia consumption induced up to culture day (DG44 CHO [2]; 45 mM added on Day 5): 10 days
- final ammonia concentration (DG44 CHO [2]; 45 mM added on Day 5): 7 mM
- effect on ammonia (NH4+) accumulation (DG44 CHO [2]): dependent on the dose, but the effect lasts only for a few days
- cell-specific productivity (DG44 CHO [4]; 45 mM, control averaged 31 pg/cell/day): ~24 pg/cell/day
- effect on ammonia (NH4+) generation / accumulation (DG44 CHO [3]): suppress ammonia generation for a few days
- effect on ammonia (NH4+) generation / accumulation (DG44 CHO [3]; listed as pyruvate): partially reduced

Compound: O=C(O)CCC(=O)C(=O)O [α-ketoglutaric acid]
- effect on cell growth / viable cell concentration after addition (DG44 CHO [1]): cell division seems to stop
- most effective concentration to reduce production of NH4+ (DG44 CHO [2]; 15, 30, 45 mM tested): 45 mM
- cell-specific NH4+ production rate (DG44 CHO [2]; all concentrations tested): reduced
- effect on ammonia (NH4+) accumulation (DG44 CHO [2]; listed as α-KG): reduced; also recorded: most effective
- reduction of the cell-specific productivity compared to the control (DG44 CHO [4]; used alone (FIGS. 21 and 22)): 10-20%
- effect on ammonia generation (DG44 CHO [3]; 20 mM, alone): control ammonia generation
- effect on ammonia (NH4+) generation / accumulation (DG44 CHO [3]): consumed
- cell-specific productivity (DG44 CHO [6]): ~30 pg/cell/day
